The structures appear in SMILES notation. pIC50: −log10 of the molar value. Some results are limits rather than exact numbers.

The target of the experiment is PKCθ (Homo sapiens, UniProt Q04759). Description: PKCθ enzyme data at 1 mM ATP. It is filed as biochemical.
Sequence of PKCθ (Q04759 whole entry): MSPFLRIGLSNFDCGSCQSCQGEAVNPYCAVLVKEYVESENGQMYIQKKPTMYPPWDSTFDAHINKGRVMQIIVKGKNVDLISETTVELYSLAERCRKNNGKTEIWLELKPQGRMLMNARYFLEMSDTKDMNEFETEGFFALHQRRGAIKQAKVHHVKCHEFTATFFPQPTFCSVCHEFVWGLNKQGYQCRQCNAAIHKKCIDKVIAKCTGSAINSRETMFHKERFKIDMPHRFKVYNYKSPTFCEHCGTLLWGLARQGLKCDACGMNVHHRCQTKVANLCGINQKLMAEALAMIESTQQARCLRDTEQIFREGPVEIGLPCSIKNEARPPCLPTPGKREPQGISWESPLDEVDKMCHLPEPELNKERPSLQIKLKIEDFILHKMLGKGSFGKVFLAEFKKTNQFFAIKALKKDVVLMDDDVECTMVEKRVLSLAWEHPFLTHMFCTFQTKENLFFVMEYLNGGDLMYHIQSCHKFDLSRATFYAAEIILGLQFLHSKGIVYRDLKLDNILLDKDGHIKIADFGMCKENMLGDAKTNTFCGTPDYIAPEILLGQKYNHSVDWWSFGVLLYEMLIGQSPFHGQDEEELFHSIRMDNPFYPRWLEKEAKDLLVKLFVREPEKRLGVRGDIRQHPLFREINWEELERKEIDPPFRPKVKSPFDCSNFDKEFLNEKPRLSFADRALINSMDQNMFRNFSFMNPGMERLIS
`O=C1NC(=O)C(c2c[nH]c3ccsc23)=C1c1nc(N2CCn3cnnc3C2)nc2ccccc12` [E.2.8]: the pIC50 was 6.30 to 7.00. `O=C1NC(=O)C(c2c[nH]c3sccc23)=C1c1nc(N2CCn3ncnc3C2)nc2ccccc12` [E.1.38] had a pIC50 of 6.30 to 7.00.

The molecule `CN1CCC(Cc2nc(C3=C(c4c[nH]c5sccc45)C(=O)NC3=O)c3ccccn23)CC1` [F.4.33] gave a pIC50 of 6.00 to 6.30. In turn, `NC(=O)C1CCN(c2nc(C3=C(c4c[nH]c5sccc45)C(=O)NC3=O)c3ccccc3n2)CC1` [E.1.14] had a pIC50 of 6.00 to 6.30. Consider `O=C1NC(=O)C(c2c[nH]c3sccc23)=C1c1nc(N2CCC(CN3CCC3)CC2)nc2ccccc12` [E.1.17], for which the pIC50 was above 7.00. Then `CN(C)C1(C)CCN(c2nc(C3=C(c4c[nH]c5sccc45)C(=O)NC3=O)c3ccccc3n2)CC1` [E.1.41], with 6.30 to 7.00; and `O=C1NC(=O)C(c2c[nH]c3ccsc23)=C1c1nc(N2CCC(N3CCCCC3)CC2)nc2ccccc12` [E.2.2], with above 7.00. The molecule `O=C1NC(=O)C(c2c[nH]c3sccc23)=C1c1nc(N2C[C@@H]3C[C@H]2CN3)nc2ccccc12` [G.1.2] showed a pIC50 of 6.30 to 7.00. In the case of `O=C1NC(=O)C(c2c[nH]c3sccc23)=C1c1nc(N2CCNCC2)nc2sccc12` [G.1.18], the pIC50 was above 7.00. In turn, `COCCN1CCC(Cn2nc(C3=C(c4c[nH]c5sccc45)C(=O)NC3=O)c3ccccc32)CC1` [F.4.21] gave a pIC50 of 6.30 to 7.00.

The values are drawn from patent publication US20110152243A1, “NOVEL THIENOPYRROLE COMPOUNDS” (ABBOTT LABORATORIES, priority 2009, published 2011).
